Reference: patent US9522881B2, “Hydroxyindole carboxylic acid based inhibitors for oncogenic Src homology-2 domain containing protein tyrosine phosphatase-2 (SHP2)” (Indiana University Research and Technology Corporation, priority 2013, dated 2016)

Experiments:
leukemic mice = settings: together with PI3Kinase inhibitor LY294002, compared to either inhibitor alone; cited from earlier work
[1] = test system: 32D myeloid cells bearing wild-type (WT) KIT; test: Proliferation (thymidine incorporation) of 32D myeloid cells bearing WT KIT; assay type: cell-based; settings: tested concentrations, with IL-3
Experimental: (§1) FIG. 8A is a graph depicting 32D myeloid cells bearing wild-type (WT) KIT or KITD814V that were starved of serum and growth factors for 6 hours and subjected to proliferation assay in the presence or absence of the indicated concentration of II-B08 or 11a-1 as analyzed in Example 6. Assay was performed in the presence of IL-3 (10 ng/mL) for cells bearing WT KIT and in the absence of growth factors for cells bearing oncogenic KITD814V. Bars denote the mean thymidine incorporation (CPM±SEM) consolidated from four independent experiments performed in triplicate. *p<0.05.
To further determine the efficacy of compound 11a-1, the growth of oncogenic KITD814V bearing 32D myeloid cells in the presence of II-B08 and 11a-1 were compared. Specifically, the wild-type (WT) KIT and KITD814V were inserted into the bicistronic retroviral vector, MIEG3, upstream of the internal ribosome entry site (IRES) and the enhanced green fluorescent protein (EGFP) gene as previously described in Mali et al., 2012. Retroviral supernatants for transduction of 32D myeloid cells and primary hematopoietic stem and progenitor cells were generated using Phoenix ecotropic packaging cell line transfected with retroviral vector plasmids using a calcium phosphate transfection kit (Invitrogen, Carlsbad, Calif.). Supernatants were collected 48 hours after transfection and filtered through 0.45 μm membranes. […]

[2] = test system: 32D myeloid cells bearing KITD814V; settings: previously shown (Mali et al., 2012); cited from earlier work
[3] = test system: growth factor stimulated ERK1/2 activation; settings: cited from earlier work
[4] = test system: 32D myeloid cells bearing KITD814V; test: Proliferation (thymidine incorporation) of 32D myeloid cells bearing KITD814V; assay type: cell-based
Experimental: as §1
To further determine the efficacy of compound 11a-1, the growth of oncogenic KITD814V bearing 32D myeloid cells in the presence of II-B08 and 11a-1 were compared. Specifically, the wild-type (WT) KIT and KITD814V were inserted into the bicistronic retroviral vector, MIEG3, upstream of the internal ribosome entry site (IRES) and the enhanced green fluorescent protein (EGFP) gene as previously described in Mali et al., 2012. Retroviral supernatants for transduction of 32D myeloid cells and primary hematopoietic stem and progenitor cells were generated using Phoenix ecotropic packaging cell line transfected with retroviral vector plasmids using a calcium phosphate transfection kit (Invitrogen, Carlsbad, Calif.). Supernatants were collected 48 hours after transfection and filtered through 0.45 μm membranes. 32D myeloid cells were infected twice at 24-hour intervals with 2 mL high/titer virus supernatant in the presence of 10 ng/mL IL-3 and 8 μg/mL polybrene. Forty-eight hours after infection, 32D cells expressing WT KIT or KITD814V receptors were sorted to homogeneity based on EGFP expression and utilized to perform all of the experiments.

hematopoietic progenitor = settings: cited from earlier work

Compound: Cn1c(-c2ccccc2)c(-c2cn(CCC(=O)Nc3ccc(-c4ccccc4)cc3)nn2)c2cc(C(=O)O)c(O)cc21 [IIB08]
- survival of leukemic mice (leukemic mice): significantly prolonged the survival
- growth of WT KIT bearing 32D cells [1]: no significant suppression
- oncogenic KITD814V induced ligand independent growth [2]: suppressed
- growth factor stimulated ERK1/2 activation [3]: blocked
- ligand independent growth of KITD814V bearing 32D cells ([4]; 1 μM): not at 1 μM concentration
- ligand independent growth of KITD814V bearing 32D cells ([4]; 5 μM): significant suppression
- hematopoietic progenitor proliferation (hematopoietic progenitor): blocked
